Measurements published in article PMC10054634, “Chemical Constituents of Thesium chinense Turcz and Their In Vitro Antioxidant, Anti-Inflammatory and Cytotoxic Activities” (Molecules, 2023).
“Also recorded” adds a separate entry of the source.

Experiments:
[1] = DPPH radical scavenging assay; conditions: for antioxidant activity on DPPH radical scavenging (in words): compared with positive control ascorbic acid; for SC50: concentration required for 50% reduction of DPPH radicals, 37 °C, 30 min, 517 nm, nc = SC50 cannot be calculated due to weak or no related activities
Protocol: The 2, 2-diphenyl-1-picrylhydrazyl (Aldrich Chem. Co. Ltd, Shanghai, China) radical scavenging activity assay was performed according to the previously published method with some modification. Test samples were dissolved in MeOH to six different concentrations ranging from 3.125 to 100 μM. Then, 100 μL of 100 μM DPPH in MeOH were mixed with 100 μL of samples at different concentrations in the wells of 96-well plates. The reaction mixtures were incubated in the dark at 37 °C for 30 min and then measured at 517 nm. Ascorbic acid was used as the positive control. The scavenging activity (SC) was estimated as follows: % SC = [1 − (Asample − Ablank)/Acontrol] ×100. Asample was the equivalent mixture of test sample and DPPH solution. Ablank was the equivalent mixture of test sample and MeOH solution. Acontrol was the equivalent mixture of DPPH and MeOH solution. The SC50 values were used to evaluate the antioxidant activities of isolated compounds. The experiments were performed in triplicate, and the data were expressed as the means ± SD of three independent experiments.

[2] = tested on: NO production in LPS-activated RAW 264.7 cells; assay: Inhibition of NO production in LPS-activated RAW 264.7 cells (Griess reaction); format: cell-based; conditions: Mus musculus, RAW264.7; RAW 264.7, 1 μg/mL LPS, 24 h; mean ± SD (n = 3); read-out: IC50 (NO inhibitory activity)
Protocol: The macrophage RAW 264.7 cells were obtained from the Cell Bank of the Chinese Academy of Sciences (Shanghai, China). A total of 180 μL of RAW 264.7 cells (1 × 10^4) were plated respectively in each well of 96-well plate and cultured for 24 h, then the supernatant of the culture was discarded and 180 μL complete medium with 1 μg/mL LPS and different concentrations of test samples were added into triplicate wells for 24 h. The inhibition effects on LPS-stimulated NO production was evaluated by the Griess reaction assay. The experiments were performed in triplicate, and the data were expressed as the means ± SD of three independent experiments.

[3] = tested on: NCI-H292; assay: Cytotoxic assay (CCK-8), NCI-H292; format: cell-based, human; conditions: Homo sapiens, NCI-H292, 48 h, mean ± SD (n = 3)
Protocol: (§1) Four human cancer cell lines, A549, NCI-H292, SiHa and MKN45, were purchased from the Cell Bank of the Chinese Academy of Sciences (Shanghai, China). […] Cisplatin (Abmole Bioscience, Shanghai, China) was used as positive control.
(§2) A total of 180 μL of cancer cells (5 × 10^3) were plated in each well of 96-well plates and cultured for 24 h, then the supernatant of the culture was discarded and 180 μL complete medium with different concentrations of test samples were added into triplicate wells of each cell line, respectively. Thereafter, A549, NCI-H292, SiHa and MKN45 were incubated for 48 h, respectively. The cell viability was evaluated by Cell Counting Kit-8 (CCK-8, Best Bio., Beijing, China), respectively. The experiments were performed in triplicate, and the data were expressed as the means ± SD of three independent experiments.

[4] = Cytotoxicity in RAW 264.7 cells (CCK-8); conditions: mouse
Protocol: (§3) The cell viability was determined by the CCK-8 assay method. The cytotoxicity was calculated from the plotted results using untreated cells at 100%.

[5] = tested on: MKN45; assay: Cytotoxic assay (CCK-8), MKN45; format: cell-based, human; conditions: Homo sapiens, MKN-45, MKN45, 48 h, mean ± SD (n = 3)
Protocol: as §1, §2

[6] = tested on: SiHa; assay: Cytotoxic assay (CCK-8), SiHa; format: cell-based, human; conditions: Homo sapiens, 48 h, mean ± SD (n = 3)
Protocol: as §1, §2

[7] = tested on: A549; assay: Cytotoxic assay (CCK-8), A549; format: cell-based, human; conditions: Homo sapiens, A549, 48 h, mean ± SD (n = 3)
Protocol: as §1, §2

[8] = tested on: LPS-induced acute lung injury; parameters: method as in PMID 34417573, PMID 34038447; conditions: mice; cited from earlier work
[9] = tested on: RAW 264.7 cells
Protocol: as §3

IC50 [2] | IC50 [9] | Compound | antioxidant activity on DPPH radical scavenging (in words) [1] | SC50 [1] | IC50 [3] | IC50 [4] | IC50 [5] | IC50 [6] | IC50 [7] | anti-inflammatory effects against LPS-induced acute lung injury [8]
28.6 ± 3 µM |  | CCOC(=O)/C=C/c1ccc(O)c(OC)c1 [Compound 21, 3-O-ethyl ferulate] |  | 50.8 ± 1.4 µM | > 200 µM | > 200 µM | > 200 µM | > 200 µM | > 200 µM | obvious anti-inflammatory effects
> 200 µM |  | COc1cc([C@@H](OC)[C@H](O)CO)ccc1O [Compound 26, alatusol D] | weak antioxidant activities | 284.0 ± 16.5 µM | > 200 µM | > 200 µM | > 200 µM | > 200 µM | > 200 µM | 

More lines, now with the values behind:

Compound | IC50 [2] | IC50 [9] | antioxidant activity on DPPH radical scavenging (in words) [1] | SC50 [1] | IC50 [3] | IC50 [4] | IC50 [5] | IC50 [6] | IC50 [7] | anti-inflammatory effects against LPS-induced acute lung injury [8]
COc1cc(C(O)C(CO)Oc2ccc(C(O)C(O)CO)cc2OC)ccc1O (stereo not drawn) [Compound 18, 1-(4-hydroxy-3-methoxy)-phenyl-2-[4-(1,2,3-trihydroxypropyl)-2-methoxy]-phenoxy-1,3-propan-diol] | > 200 µM |  | weak antioxidant activities; also recorded: moderate activity | 127.9 ± 15.4 µM | > 200 µM | > 200 µM | > 200 µM | > 200 µM | > 200 µM | 
COc1cc([C@@H]2OC[C@@H](Cc3ccc(O[C@@H]4O[C@H](CO)[C@@H](O)[C@H](O)[C@H]4O)c(OC)c3)[C@H]2CO)ccc1O [Compound 19, lariciresinol-4-O-β-D-glucoside] | > 200 µM |  | significant scavenging activity | 48.8 ± 2.9 µM | > 200 µM | > 200 µM | > 200 µM | > 200 µM | > 200 µM | 
scopolin [Compound 27] |  | > 200 µM |  |  |  |  |  |  |  | 
